Reference: patent US20230270713A1, “Administration of Resiniferatoxin For Treatment of Bladder Pain or Bladder Cancer” (Sorrento Therapeutics, Inc., priority 2020, published 2023)
Entries after “also recorded” stand apart in the source; their conditions may differ.

Legend:
[1] = system: S1 and S2 DRG neurons expressing CGRP and SP; experiment: CGRP and SP positive neurons in S1 and S2 dorsal root ganglia of cats (IHC); assay type: in vivo, cat
Protocol: At day 14 the cats were anesthetized and perfused with saline followed by 10% formalin. After confirmation of successful euthanasia, lumbar and sacral segments of the spinal cord with corresponding dorsal spinal ganglia, the urinary bladder and urethra were harvested and tissues were prepared for immunohistochemistry.
Previous studies have shown that TRPV1-immunoreactive axons co-express Calcitonin gene-related peptide (CGRP) and substance P (SP) (See, e.g., Sharrad et al. (2015) Neurosci. Lett., 599: 164-171; Bae et al. (2004) J. Comp. Neurol. 478: 62-71). Since feline bladder connective tissue, smooth muscle, and cell bodies of S2 DRG express CGRP+ and SP+ axons, expression of CGRP and SP were used in these studies to identify the majority of TRPV1 axons innervating the cat bladder and TRPV1+ cell bodies in cat S2 dorsal root ganglia (DRG).
The percent of cell bodies from S1 and S2 DRG expressing SP and CGRP from feline bladders after intravesical application of either control (saline) or RTX (5, 25 or 50 mcg) was also examined using immunohistochemistry and confocal laser microscopy as described above. […] CGRP positive cell bodies were small to medium-size.

[2] = Adverse events in dogs with bladder cancer (Example D); assay type: in vivo, dog
Protocol: Dogs with bladder cancer were treated with RTX as follows. Under general anesthesia, RTX was infused directly into the bladder using a foley catheter. RTX remained in the bladder for 30 minutes before removal.

[3] = system: cats with FIC (Feline Idiopathic Cystitis); experiment: VSOM in cats with Feline Idiopathic Cystitis; assay type: in vivo, cat
Protocol: The effectiveness and safety of a single intravesical instillation with RTX was evaluated for the management of clinical and behavioral signs associated with non-obstructive FIC in cats. The primary effectiveness endpoint was the improvement in a Veterinary-specific Outcome Measure (VSOM) and Cystitis Events Survey on day 28.
The total VSOM is the sum of three individual VSOM scores that each have an integer value in the range of 1 to 5. Each individual VSOM score corresponds to a clinical sign/activity/behavior selected as relevant to FIC for an individual cat by the cat's owner or legal representative with the help of the Investigator. An example of a clinical sign/activity/behavior is pain or resentfulness on palpation. The minimum possible score for each individual VSOM score is 1, which indicates no problem, and the maximum is 5, which indicates an impossible activity/behavior or a maximum severity clinical sign. The minimum and maximum total VSOM scores are 3 and 15. On screening days (e.g., Day 0 and Day 28), the Investigator completed the VSOM questionnaire and assigned a score to each of the 3 clinical signs/activities/behaviours that were selected.
Treatment success was defined as “a reduction of at least 2 in total VSOM score at Day 3 and 28 compared to VSOM score at day 0.” A decrease of less than 2, no change, or an increase in total score was defined as treatment failure. Cats presenting an increase in any individual VSOM score were considered a treatment failure regardless of total VSOM score.
RTX was provided as a 25 μg/mL (2.4 mL) solution, formulated with polysorbate, glucose, and phosphate buffer, and diluted in saline to 1 μg/mL before instillation. Intravesical instillation: After the cat has reached an adequate anesthesia level, the perineal area was prepared using a standard aseptic technique. After preparation, a urinary catheter (type and size decided on a case by case basis) was placed using aseptic technique. Then, the urinary bladder was emptied and flushed with 20 ml of sterile saline. Once the flush solution was removed, the RTX solution was infused through the urinary catheter over 2 minutes. Once the total volume of the solution is infused, the solution was left in the urinary bladder for 20 min. At the end of this period the IVP (investigational veterinary product) solution was removed. Finally, the urinary catheter was removed, and the perineal area was flushed with 20 ml of saline. The total amount of solution removed from the bladder was recorded.
24 cats were treated and the cohorts and their respective IVP treatments are described in the table 9 below. The cohorts were populated and dosed sequentially. Cats enrolled in Cohorts 2, 3 and 4 were dosed at least 3 days after the previous cohort closed.

[4] = Safety monitoring in FIC cats; assay type: in vivo, cat
Protocol: As a way of monitoring the safety of the experiment for the enrolled cats, a physical examination was performed on the cats on Days 14 and 28. Measurements for body weight, body temperature, heart rate and respiratory rate were recorded. Body weight was collected for all cohorts, while the remaining variables were collected for Cohort 1, which received the highest total dose of RTX (25 μg/25 mL). […] Results were also collected for complete blood count (CBC), serum chemistry, urinalysis and culture.

[5] = system: cats with FIC (Feline Idiopathic Cystitis); experiment: VSOM in cats with Feline Idiopathic Cystitis; assay type: in vivo, cat; conditions: for VSOM treatment failure, number of cats / VSOM treatment failure, percent of cats: Day 28 vs Day 0
[6] = Overall (Cohorts 1-4), Day 28 vs Day 0
[7] = 6.25 μg (0.25 μg/mL), Day 0, n 6
[8] = 6.25 μg (0.25 μg/mL), Day 28, n 6
[9] = 12.5 μg (0.5 μg/mL), Day 0, n 6
[10] = 12.5 μg (0.5 μg/mL), Day 28, n 5
[11] = 12.5 μg (1.25 μg/mL), Day 0, n 6
[12] = 12.5 μg (1.25 μg/mL), Day 28, n 6

C=C(C)[C@]12C[C@@H](C)[C@@]34O[C@](Cc5ccccc5)(O[C@@H]1[C@@H]3C=C(COC(=O)Cc1ccc(O)c(OC)c1)C[C@]1(O)C(=O)C(C)=C[C@@H]41)O2 [RTX, resiniferatoxin]
number of neurons (cell bodies) expressing CGRP and SP in S2 DRG ([1]; cat, single 25 mcg intravesical, vs saline control): does not decrease; also recorded: did not modify | percentage of CGRP+ neurons in S1 DRG and S2 DRG ([1]; cats, 5, 25 and 50 mcg, 14 days post treatment, vs control): did not affect | percentage of cell bodies expressing CGRP and SP in S1 and S2 DRG ([1]; cats, 5, 25 or 50 mcg intravesical, vs control): did not affect | percentage of SP+ neurons in S1 DRG and S2 DRG ([1]; cats, 14 days post-treatment): comparable to the control | Adverse events considered possibly attributable to RTX ([2]; Case 03-01, 25 ug (2.8 ug/kg), Day 0): Bladder spasm, urinating around catheter (Grade 1) | Adverse events considered possibly attributable to RTX ([2]; Case 03-02, 50 ug (2.6 ug/kg)): none | Adverse events considered possibly attributable to RTX ([2]; Case 41-02, 50 ug (1.3 ug/kg) dosed twice, Day 1): crying out after urination (Grade 1) | Adverse events considered possibly attributable to RTX ([2]; Case 47-02, 50 ug (2.0 ug/kg), Day 0): diarrhea, vomiting, hyperoxia (Grade 1) | dose-limiting toxicity ([2]; dogs with bladder cancer): No dose-limiting toxicity was observed | adverse events ([2]; dogs with bladder cancer, 25-100 ug intravesical): minimal, mild, and transient | grade of adverse events ([2]; dogs with bladder cancer, all adverse events): grade 1 | Tolerability ([2]; dogs with bladder cancer, all tested doses incl. maximum 50 ug or 2.8 ug/kg dosed twice 28 days apart): tolerated at all tested doses | VSOM, Maximum ([3]; 25 μg (1 μg/mL), Day 0, n 6): 12.0 | VSOM, Minimum ([3]; 25 μg (1 μg/mL), Day 28, n 5): 0.0 | VSOM treatment failure, number of cats [3, 6]: 5 n | VSOM treatment success, number of cats [3, 6]: 17 n | VSOM treatment success, percent of cats [3, 6]: (77.2%) | complete blood count (CBC), serum chemistry, urinalysis and culture [4]: No significant changes were observed | Adverse events in other cohorts ([4]; Cohorts 2-4): considered unrelated to the treatment or not serious | body weight, body temperature, heart rate and respiratory rate ([4]; Days 14 and 28, body weight all cohorts, other variables Cohort 1 (25 μg/25 mL)): No clinically significant changes were observed | Tolerability ([4]; all doses, at administration and through 28-day follow-up): overall well tolerated | serious adverse events considered related to the treatment ([4]; death of a Cohort 1 cat (25 μg/25 mL)): One serious adverse event | VSOM, Maximum [5, 7]: 12.0 | VSOM, Mean [5, 7]: 10.00 | VSOM, Median [5, 7]: 10.00 | VSOM, Minimum [5, 7]: 8.0 | VSOM, Maximum [5, 8]: 10.0 | VSOM, Mean [5, 8]: 6.00 | VSOM, Median [5, 8]: 6.50 | VSOM, Minimum [5, 8]: 1.0 | VSOM, Maximum [5, 9]: 12.0 | VSOM, Mean [5, 9]: 9.67 | VSOM, Median [5, 9]: 9.50 | VSOM, Minimum [5, 9]: 8.0 | VSOM, Maximum [5, 10]: 4.0 | VSOM, Mean [5, 10]: 1.60 | VSOM, Median [5, 10]: 1.00 | VSOM, Minimum [5, 10]: 0.0 | VSOM, Maximum [5, 11]: 10.0 | VSOM, Mean [5, 11]: 9.83 | VSOM, Median [5, 11]: 10.00 | VSOM, Minimum [5, 11]: 9.0 | VSOM, Maximum [5, 12]: 6.0 | VSOM, Mean [5, 12]: 3.83 | VSOM, Median [5, 12]: 4.00 | VSOM, Minimum [5, 12]: 2.0 | VSOM, Mean ([5]; 25 μg (1 μg/mL), Day 0, n 6): 10.00 | VSOM, Median ([5]; 25 μg (1 μg/mL), Day 0, n 6): 10.00 | VSOM, Minimum ([5]; 25 μg (1 μg/mL), Day 0, n 6): 9.0 | VSOM, Maximum ([5]; 25 μg (1 μg/mL), Day 28, n 5): 4.0 | VSOM, Mean ([5]; 25 μg (1 μg/mL), Day 28, n 5): 1.80 | VSOM, Median ([5]; 25 μg (1 μg/mL), Day 28, n 5): 1.00 | VSOM treatment failure, number of cats ([5]; Cohort 1 25 μg/25 mL): 0 n | VSOM treatment failure, percent of cats ([5]; Cohort 1 25 μg/25 mL): 0.0% | VSOM treatment failure, number of cats ([5]; Cohort 2 6.25 μg/25 mL): 3 n | VSOM treatment failure, percent of cats ([5]; Cohort 2 6.25 μg/25 mL): 50.0% | VSOM treatment failure, number of cats ([5]; Cohort 3 12.5 μg/25 mL): 0 n | VSOM treatment failure, percent of cats ([5]; Cohort 3 12.5 μg/25 mL): 0.0% | VSOM treatment failure, number of cats ([5]; Cohort 4 12.5 μg/10 mL): 2 n | VSOM treatment failure, percent of cats ([5]; Cohort 4 12.5 μg/10 mL): 33.3% | VSOM treatment failure, percent of cats ([5]; Overall (Cohorts 1-4)): (22.8%)
